Consider 10 compounds from patent publication US8642801B2 (BHI Limited Partnership, priority 2003, dated 2014).

The target in the assay is T1, Aβ40 and Aβ42 peptides in plasma and brain of TgCRND8 mice (Homo sapiens, UniProt P05067).
T1 construct: ELISA using Human Aβ40 and Aβ42 Fluorometric ELISA kits from Biosource; from tissue; host or cells: plasma and brain homogenate of TgCRND8 transgenic mice (hAPP transgene)
In words: Short term treatment in adult transgenic CRND8 mice overexpressing βAPP: Aβ levels in plasma and brain by ELISA. It counts as in vivo, Mouse. To be noted: for Brain homogenate Aβ40 Change Insoluble / Brain homogenate Aβ40 Change Soluble / Brain homogenate Aβ42 Change Insoluble / Brain homogenate Aβ42 Change Soluble / Plasma Aβ40 Change / Plasma Aβ42 Change: TgCRND8 mice. The source says: Transgenic mice, […]8, expressing the human amyloid precursor protein (hAPP) develop a pathology resembling Alzheimer's disease. In particular, high levels of Aβ40 and Aβ 42 have been documented in the plasma and the brain of these animals at 8-9 weeks of age, followed by early accumulation of amyloid plaques similar to the senile plaques observed in AD patients. These animals also display progressive cognitive deficits that parallel the appearance of degenerative changes. See, […], et al., J. Biol. Chem. 276, 21562-70 (2001). The short term therapeutic effect of 19 compounds of the invention was studied. […] The following abbreviations are used to designate these animals from the 3rd and 4th generation backcross in the present protocol: TgCRND8-2.B6C3F1(N3); TgCRND8-2.B6C3F1(N4). Baseline animals (Group 1) consisted of naive TgCRND8-2. B6C3F1(N3) at 11±1 weeks of age. These mice were used to determine the Aβ levels in the plasma and brain of naive transgenic animals at the initiation of treatment. […] At the end of the treatment periods, plasma and perfused brains were collected for quantification of Aβ levels. […] Plasma samples were immediately frozen and stored at -80° C. pending analysis. The brains were removed, frozen, and stored at -80° C. awaiting analysis. […] Samples were spun at 15000 g for 20 minutes and the supernatants were transferred to fresh tubes. […] The tubes were vortexed for 30 seconds and frozen at -80° C. […] Samples were thawed at room temperature, sonicated at 80° C. for 15 minutes and frozen again. This cycle was repeated 3 times to ensure homogeneity and samples were returned to -80° C. pending analysis. Aβ levels were evaluated in plasma and brain samples by ELISA using Human Aβ40 and Aβ42 Fluorometric ELISA kits from Biosource (Cat. […] In short, samples were thawed at room temperature, sonicated for 5 minutes at 80° C. (sonication for brain homogenates; no sonication for plasma samples) and kept on ice. Aβ peptides were captured using 100 μl of the diluted samples to the plate and incubated without shaking at 4° C. overnight. The samples were aspirated and the wells were rinsed 4 times with wash buffer obtained from the Biosource ELISA kit. The anti-Aβ40 or anti-Aβ42 rabbit polyclonal antiserum (specific for the Aβ40 or Aβ42 peptide) was added (100 μl) and the plate was incubated at room temperature for 2 hours with shaking. The wells were aspirated and washed 4 times before adding 100 μl of the alkaline phosphatase labeled anti-rabbit antibody and incubating at room temperature for 2 hours with shaking. The plates were then rinsed 5 times and the fluorescent substrate (100 μl) was added to the plate. The plate was incubated for 35 minutes at room temperature and the plate was read using a titer plate reader at an excitation wavelength of 460 nm and emission at 560 nm Compounds were scored based on their ability to modulate levels of Aβ peptides in the plasma and the cerebral soluble/insoluble levels in the brain. Levels of Aβ observed in the plasma and brain of treated animals were normalized using values from vehicle-treated (water) or methylcellulose-treated control groups and ranked according to the strength of the pharmacological effect. Increases in the levels of Aβ peptides are indicated using “+” symbols, while decreases in the levels of Aβ peptides are indicated using “-” symbols. The strongest effects are recorded as “+++” or “- - -” while the weakest are shown as “+” or “-”.
On the technique in general: An ELISA detects its analyte on a solid surface through an enzyme-linked reagent.

Setting [1] is: Brain Homogenate Vehicle Group, Day 14, 250 mg/kg daily.
Where [2] appears, read: Brain Homogenate Vehicle Group, Day 28, 250 mg/kg daily.
Setting [3] is: Plasma Vehicle Group, Day 14, 250 mg/kg daily subcutaneous, normalized to water vehicle control.
[4] abbreviates: Brain Homogenate Vehicle Group, Day 28, total levels, soluble and insoluble not measured independently, 250 mg/kg daily.
The mark [5] stands for this setting: Plasma Vehicle Group, Day 28, 250 mg/kg daily subcutaneous, normalized to water vehicle control.
Where [6] appears, read: Brain Homogenate Methylcellulose Group, Day 14, 250 mg/kg daily oral.
The mark [7] stands for this setting: Brain Homogenate Methylcellulose Group, Day 28, 250 mg/kg daily oral.

For `COCC(NCCCS(=O)(=O)O)[C@@H](O)c1ccccc1` (stereo in doubt) [EG, 3-[(1R,2S)-2-hydroxy-1-(methoxymethyl)-2-phenylethyl]amino-1-propanesulfonic acid], under setting [1], the “Brain homogenate Aβ40 Change Insoluble” value is listed as “−− (decreases of 20 to 38% are scored as “− −”)”, the “Brain homogenate Aβ40 Change Soluble” value is on record as “− (Decreases in the levels of Aβ of 5 to 19% are scored as “−”)”, the “Brain homogenate Aβ42 Change Insoluble” value was “−− (decreases of 20 to 38% are scored as “− −”)” and the “Brain homogenate Aβ42 Change Soluble” value is on record as “−− (decreases of 20 to 38% are scored as “− −”)”. Under setting [2], the “Brain homogenate Aβ40 Change Insoluble” value is recorded as “−− (decreases of 20 to 38% are scored as “− −”)” and the “Brain homogenate Aβ42 Change Insoluble” value is on record as “−− (decreases of 20 to 38% are scored as “− −”)”.
In the case of `O=S(=O)(O)CCCNC1CC2CCC1C2` (stereo not drawn) [BY, 3-(2-norbornyl)amino-1-propanesulfonic acid], under setting [1], the “Brain homogenate Aβ40 Change Insoluble” value was “+++ (increases of 70% or higher are scored as “+ + +”)”, the “Brain homogenate Aβ40 Change Soluble” value is reported as “+++ (increases of 70% or higher are scored as “+ + +”)” and the “Brain homogenate Aβ42 Change Soluble” value is given as “+++ (increases of 70% or higher are scored as “+ + +”)”. Moreover, under setting [2], the “Brain homogenate Aβ40 Change Insoluble” value is “+++ (increases of 70% or higher are scored as “+ + +”)”, the “Brain homogenate Aβ40 Change Soluble” value is recorded as “+ (increases in the levels of Aβ (relative to untreated control) of 20 to 39% are scored as “+”)” and the “Brain homogenate Aβ42 Change Insoluble” value is “+++ (increases of 70% or higher are scored as “+ + +”)”. Under setting [3], the “Plasma Aβ40 Change” value is given as “+ (increases in the levels of Aβ (relative to untreated control) of 20 to 39% are scored as “+”)” and the “Plasma Aβ42 Change” value is “+ (increases in the levels of Aβ (relative to untreated control) of 20 to 39% are scored as “+”)”.
As for `CCNCCCS(=O)(=O)O` [CV, 3-ethylamino-1-propanesulfonic acid], the “Brain homogenate Aβ40 Change, total level” value (Brain Homogenate Vehicle Group, Day 14, total levels, soluble and insoluble not measured independently, 250 mg/kg daily) was “− (Decreases in the levels of Aβ of 5 to 19% are scored as “−”)”. Under setting [4], the “Brain homogenate Aβ40 Change, total level” value is listed as “++ (increases of 40 to 69% are scored as “++”)” and the “Brain homogenate Aβ42 Change, total level” value was “+++ (increases of 70% or higher are scored as “+ + +”)”. Under setting [3], the “Plasma Aβ40 Change” value is listed as “+ (increases in the levels of Aβ (relative to untreated control) of 20 to 39% are scored as “+”)” and the “Plasma Aβ42 Change” value is reported as “++ (increases of 40 to 69% are scored as “++”)”. Also, under setting [5], the “Plasma Aβ40 Change” value is recorded as “++ (increases of 40 to 69% are scored as “++”)” and the “Plasma Aβ42 Change” value was “++ (increases of 40 to 69% are scored as “++”)”.
Take `CC12CC3CC(C)(C1)CC(NCCCS(=O)(=O)O)(C3)C2` [CY]: under setting [6], the “Brain homogenate Aβ40 Change Soluble” value is “− (Decreases in the levels of Aβ of 5 to 19% are scored as “−”)”, the “Brain homogenate Aβ42 Change Insoluble” value is listed as “++ (increases of 40 to 69% are scored as “++”)” and the “Brain homogenate Aβ42 Change Soluble” value was “+++ (increases of 70% or higher are scored as “+ + +”)”. Besides, under setting [7], the “Brain homogenate Aβ40 Change Insoluble” value is “+++ (increases of 70% or higher are scored as “+ + +”)”, the “Brain homogenate Aβ40 Change Soluble” value is “++ (increases of 40 to 69% are scored as “++”)”, the “Brain homogenate Aβ42 Change Insoluble” value is “+ (increases in the levels of Aβ (relative to untreated control) of 20 to 39% are scored as “+”)” and the “Brain homogenate Aβ42 Change Soluble” value is “+++ (increases of 70% or higher are scored as “+ + +”)”. Further, the “Plasma Aβ42 Change” value (Plasma Methylcellulose Group, Day 28, 250 mg/kg daily oral in 1% methylcellulose, normalized to methylcellulose control) is on record as “+ (increases in the levels of Aβ (relative to untreated control) of 20 to 39% are scored as “+”)”.
Turning to `O=S(=O)(O)CC(O)CNC1CCCCC1` (stereo not drawn) [DC], under setting [1], the “Brain homogenate Aβ40 Change Insoluble” value is on record as “−− (decreases of 20 to 38% are scored as “− −”)”, the “Brain homogenate Aβ42 Change Insoluble” value is recorded as “−− (decreases of 20 to 38% are scored as “− −”)” and the “Brain homogenate Aβ42 Change Soluble” value is “+ (increases in the levels of Aβ (relative to untreated control) of 20 to 39% are scored as “+”)”. In addition, under setting [2], the “Brain homogenate Aβ40 Change Insoluble” value is “+ (increases in the levels of Aβ (relative to untreated control) of 20 to 39% are scored as “+”)”, the “Brain homogenate Aβ40 Change Soluble” value was “− (Decreases in the levels of Aβ of 5 to 19% are scored as “−”)”, the “Brain homogenate Aβ42 Change Insoluble” value is given as “+++ (increases of 70% or higher are scored as “+ + +”)” and the “Brain homogenate Aβ42 Change Soluble” value is “++ (increases of 40 to 69% are scored as “++”)”. Besides, under setting [3], the “Plasma Aβ40 Change” value is “++ (increases of 40 to 69% are scored as “++”)” and the “Plasma Aβ42 Change” value is “++ (increases of 40 to 69% are scored as “++”)”. Besides, the “Plasma Aβ40 Change” value under setting [5] is “++ (increases of 40 to 69% are scored as “++”)”.
For `CCC(CC)NCCCS(=O)(=O)O` [DD, 3-(3-pentyl)amino-1-propanesulfonic acid], the “Brain homogenate Aβ40 Change Insoluble” value is given as “− (Decreases in the levels of Aβ of 5 to 19% are scored as “−”)” under setting [1] and “− (Decreases in the levels of Aβ of 5 to 19% are scored as “−”)” under setting [2].
As to `CC(C)(CO)NCCCS(=O)(=O)O` [DH, 3-(1,1-dimethyl-2-hydroxyethyl)amino-1-propanesulfonic acid], under setting [1], the “Brain homogenate Aβ40 Change Insoluble” value is recorded as “−− (decreases of 20 to 38% are scored as “− −”)”, the “Brain homogenate Aβ42 Change Insoluble” value is “−−− (decreases of 39% or more are scored as “− − −”)” and the “Brain homogenate Aβ42 Change Soluble” value was “−−− (decreases of 39% or more are scored as “− − −”)”. In addition, under setting [2], the “Brain homogenate Aβ40 Change Insoluble” value is listed as “− (Decreases in the levels of Aβ of 5 to 19% are scored as “−”)” and the “Brain homogenate Aβ42 Change Insoluble” value was “− (Decreases in the levels of Aβ of 5 to 19% are scored as “−”)”.
Take `CC(C)(NCCCS(=O)(=O)O)c1ccccc1` [DM, 3-cumylamino-1-propanesulfonic acid]: under setting [1], the “Brain homogenate Aβ40 Change Insoluble” value is on record as “+ (increases in the levels of Aβ (relative to untreated control) of 20 to 39% are scored as “+”)”, the “Brain homogenate Aβ42 Change Insoluble” value is given as “− (Decreases in the levels of Aβ of 5 to 19% are scored as “−”)” and the “Brain homogenate Aβ42 Change Soluble” value is on record as “− (Decreases in the levels of Aβ of 5 to 19% are scored as “−”)”. Under setting [2], the “Brain homogenate Aβ40 Change Insoluble” value is “−− (decreases of 20 to 38% are scored as “− −”)”, the “Brain homogenate Aβ40 Change Soluble” value is reported as “− (Decreases in the levels of Aβ of 5 to 19% are scored as “−”)”, the “Brain homogenate Aβ42 Change Insoluble” value is given as “−− (decreases of 20 to 38% are scored as “− −”)” and the “Brain homogenate Aβ42 Change Soluble” value is on record as “−− (decreases of 20 to 38% are scored as “− −”)”.
For the compound `C#CC1(NCCCS(=O)(=O)O)CCCCC1` [DX, 3-(1-ethynylcyclohexyl)amino-1-propanesulfonic acid], under setting [1], the “Brain homogenate Aβ40 Change Insoluble” value is “−− (decreases of 20 to 38% are scored as “− −”)” and the “Brain homogenate Aβ42 Change Insoluble” value was “− (Decreases in the levels of Aβ of 5 to 19% are scored as “−”)”. Further, under setting [2], the “Brain homogenate Aβ40 Change Insoluble” value is “−− (decreases of 20 to 38% are scored as “− −”)”, the “Brain homogenate Aβ42 Change Insoluble” value is listed as “−− (decreases of 20 to 38% are scored as “− −”)” and the “Brain homogenate Aβ42 Change Soluble” value is “− (Decreases in the levels of Aβ of 5 to 19% are scored as “−”)”.
On to `O=S(=O)(O)CCCNCC(O)c1ccccc1` (stereo not drawn) [DY], for which, under setting [1], the “Brain homogenate Aβ40 Change Insoluble” value is on record as “−− (decreases of 20 to 38% are scored as “− −”)” and the “Brain homogenate Aβ42 Change Insoluble” value is given as “−− (decreases of 20 to 38% are scored as “− −”)”. In addition, under setting [2], the “Brain homogenate Aβ40 Change Insoluble” value was “−−− (decreases of 39% or more are scored as “− − −”)”, the “Brain homogenate Aβ42 Change Insoluble” value is given as “−− (decreases of 20 to 38% are scored as “− −”)” and the “Brain homogenate Aβ42 Change Soluble” value was “− (Decreases in the levels of Aβ of 5 to 19% are scored as “−”)”.
